The target of test [1] is T1, PAC1 (endogenous, mainly PAC1null, SH-SY5Y) (Homo sapiens, UniProt P41586).
T1 construct: Neuroblastoma SH-SY5Y cells endogenously xpressing hPAC1 and engineered to express CBS; endogenous in cells
T1 sequence (P41586 21-468): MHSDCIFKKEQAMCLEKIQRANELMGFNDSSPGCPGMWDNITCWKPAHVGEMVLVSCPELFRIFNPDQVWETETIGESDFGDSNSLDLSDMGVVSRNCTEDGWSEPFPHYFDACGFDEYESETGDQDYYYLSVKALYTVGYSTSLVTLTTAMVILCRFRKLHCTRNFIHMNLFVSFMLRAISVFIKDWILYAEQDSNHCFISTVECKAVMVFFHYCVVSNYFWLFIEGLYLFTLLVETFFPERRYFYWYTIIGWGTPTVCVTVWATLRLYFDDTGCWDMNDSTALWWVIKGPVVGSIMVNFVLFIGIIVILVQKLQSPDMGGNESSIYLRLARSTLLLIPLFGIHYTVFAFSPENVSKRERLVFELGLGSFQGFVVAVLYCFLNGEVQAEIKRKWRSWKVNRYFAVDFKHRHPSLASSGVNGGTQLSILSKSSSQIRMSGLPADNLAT
Nature of the test: CBS assay, antagonism of P27-induced cAMP in SY5Y_CBS cells. Format: cell-based. The settings on record: for antagonist potency vs P6-27: 0.2 nM P27 (EC80); for IC50: IC50 against P27, 0.2 nM P27 (EC80), n = 3, Figure 7C. From the text:
(§1) A single clone of the SH-SY5Y cell line stably expressing a cAMP biosensor (SY5Y_CBS) was generated as previously described for HEK293_CBS and NS-1_CBS cells, using the retroviral vector pLHCX containing the cAMP biosensor and a hygromycin resistance gene. A HEK293_CBS_hPAC1 cell clone was generated by transducing HEK293_CBS cells with the lentiviral vector pLX304 (GeneCopoeia, Rockville, MD) encoding the human PAC1hop (PAC1; GenBank accession no. BC143679) and a blasticidin resistance gene . Following transduction, cells were selected with the appropriate antibiotics (hygromycin or blasticidin) for 2 weeks. Single-cell clones were subsequently isolated by limiting dilution and assessed for PACAP-induced cAMP production using concentration-response assays.
(§2) The cyclic AMP biosensor (CBS) assay was performed using Gibco CO2-independent medium (ThermoFisher, catalog #18045-088). HEK293_CBS_hPAC1 or SY5Y_CBS cells were seeded in 96-well black/clear-bottom plates (MidSci, Fenton, MO) at a density of 6,000 cells per well and incubated overnight. The following day, the medium in each well was aspirated and replaced with fresh medium containing 1.5 mg/mL D-luciferin potassium salt substrate (Gold Biotechnology, St. Louis, MO) and 500 μM isobutyl-1-methylxanthine (IBMX), followed by incubation at 37 °C for 1 hour. Cells were then pre-treated with antagonists for 10 minutes before the addition of agonists (PACAP or forskolin). Plates were incubated at 37 °C for 1 hour, then brought to room temperature and equilibrated for 30 minutes. Luminescence was measured using a GloMax plate reader (Promega, Madison, WI).
For the high-throughput CBS screening assays, cells were plated at 2,000 (HEK293_CBS_hPAC1) or 3,000 (SY5Y_CBS) cells per well in […] of Gibco CO2-independent medium, in white 1,536-well tissue culture treated plates. After overnight incubation at 37 °C and 5% CO2, […] of luciferin/IBMX solution was added to the wells (final concentrations of 500 μM each) and plates were incubated at 37 °C for 1 hour. SMOLs (22.5 nL) were transferred to the assay plate, using a pintool device (HEK293 screen) or an ECHO acoustic liquid handler (Beckman Coulter, Brea, CA, SY5Y screen), to final concentrations (4 concentrations per compound) between 0.5 and 30 μM and cells were incubated at 37 °C for 1 hour (HEK293 screen) or 10 minutes (SY5Y screen). […] For forskolin counterscreening in SY5Y cells, forskolin instead of peptide was dispensed to the plate at a final concentration of 5 μM.
(§3) GraphPad Prism ver. 9.0 or 10.0 (GraphPad Software Inc, Boston, MA) was used for data analysis. Concentration response curves were created using a four parameter logistic regression model. EC80 and IC50 parameters were obtained using non-linear regression curve fitting tools. EC80 was calculated as the effective concentration of the agonist required to produce 80% of the maximal response. IC50 was calculated as the concentration of the antagonist that produced 50% of the response induced by an agonist (either PACAP or forskolin) in the absence of the antagonist. Seven or eight different concentrations and three technical replicates per concentration were used for curve fitting. All data are presented as mean ± standard error of the mean (SEM).

Test [2] addresses T1, PAC1 (endogenous, mainly PAC1null, SH-SY5Y). Nature of the test: CBS assay, antagonism of P38-induced cAMP in SY5Y_CBS cells. The settings on record: for IC50: three independent experiments; for P38-induced cAMP elevation blocked to: 0.2 nM P38, SY5Y_CBS, n = 3. Format: cell-based.
Source text: as §1, §2, §3

The mark [3] stands for this setting: IC50 against P38 (Figure 9C), 0.2 nM P38, CBS assay, mean ± SEM.
Setting [4] is: 0.2 nM P38 (EC80), SY5Y_CBS, mean ± SEM, Figure 11B, read-out: IC50 of P6-38 C-terminal mutants in CBS assay.

Positions of bridges follow the written chain, without caps; N, C: chain ends. Non-standard residues stand in square brackets, D forms with d. Residues, ends and D or L forms follow the SMILES beside them. No end group written: not given here. Cha = N[C@@H](CC1CCCCC1)C(=O)O

Turning to `CSCC[C@@H]1NC(=O)[C@@H](NC(=O)[C@H](CCCCN)NC(=O)[C@H](CCCNC(=N)N)NC(=O)[C@H](Cc2ccc(O)cc2)NC(=O)[C@H](CCCNC(=N)N)NC(=O)[C@H](CO)NC(=O)[C@H](Cc2ccc(O)cc2)NC(=O)[C@H](CO)NC(=O)[C@H](CC(=O)O)NC(=O)[C@@H](NC(=O)[C@@H](N)Cc2ccccc2)[C@@H](C)O)CCC(=O)NCCCC[C@@H](C(=O)N[C@@H](CCCCN)C(=O)N[C@@H](Cc2ccc(O)cc2)C(=O)N[C@@H](CC(C)C)C(=O)N[C@@H](C)C(=O)N[C@@H](C)C(=O)N[C@H](C(=O)N[C@@H](CC(C)C)C(N)=O)C(C)C)NC(=O)[C@H](C(C)C)NC(=O)[C@H](C)NC1=O` [P6-27Lb, (c[E16,K20])P6-27] (H-FTDSYSRYRKEMAVKKYLAAVL-NH2; lactam 11-15; N-terminus assumed), in test [1], the “antagonist potency vs P6-27” value is on record as “did not increase the inhibitory effect of P6-27” and the IC50 – broadly, the concentration needed to halve the response being measured – was above 1000 nM.
Consider `CSCC[C@@H]1NC(=O)[C@@H](NC(=O)[C@H](CCCCN)NC(=O)[C@H](CCCNC(=N)N)NC(=O)[C@H](Cc2ccc(O)cc2)NC(=O)[C@H](CCCNC(=N)N)NC(=O)[C@H](CO)NC(=O)[C@H](Cc2ccc(O)cc2)NC(=O)[C@H](CO)NC(=O)[C@H](CC(=O)O)NC(=O)[C@@H](NC(=O)[C@@H](N)Cc2ccccc2)[C@@H](C)O)CCC(=O)NCCCC[C@@H](C(=O)N[C@@H](CCCCN)C(=O)N[C@@H](Cc2ccc(O)cc2)C(=O)N[C@@H](CC2CCCCC2)C(=O)N[C@@H](C)C(=O)N[C@@H](C)C(=O)N[C@H](C(=O)N[C@@H](CC(C)C)C(N)=O)C(C)C)NC(=O)[C@H](C(C)C)NC(=O)[C@H](C)NC1=O` [P6-27Lbx1, (c[E16,K20], Cha23)P6-27] (H-FTDSYSRYRKEMAVKKY[Cha]AAVL-NH2; lactam 11-15; N-terminus assumed), for which, in test [1], the “antagonist potency vs P6-27” value was “did not increase the inhibitory effect of P6-27” and the IC50 was above 1000 nM.
In the same order, the values of `CSCC[C@@H]1NC(=O)[C@@H](NC(=O)[C@H](CCCCN)NC(=O)[C@H](CCCNC(=N)N)NC(=O)[C@H](Cc2ccc(O)cc2)NC(=O)[C@H](CCCNC(=N)N)NC(=O)[C@H](CO)NC(=O)[C@H](Cc2ccc(O)cc2)NC(=O)[C@H](CO)NC(=O)[C@H](CC(=O)O)NC(=O)[C@@H](NC(=O)[C@@H](N)Cc2ccccc2)[C@@H](C)O)CCC(=O)NCCCC[C@@H](C(=O)N[C@@H](CCCCN)C(=O)N[C@@H](Cc2ccc(O)cc2)C(=O)N[C@@H](CC(C)C)C(=O)N[C@@H](C)C(=O)N[C@@H](C)C(=O)N[C@H](C(=O)N[C@@H](CC2CCCCC2)C(N)=O)C(C)C)NC(=O)[C@H](C(C)C)NC(=O)[C@H](C)NC1=O` [P6-27Lbx2, (c[E16,K20], Cha27)P6-27] (H-FTDSYSRYRKEMAVKKYLAAV[Cha]-NH2; lactam 11-15; N-terminus assumed) are “did not increase the inhibitory effect of P6-27” and above 1000 nM.
In test [2] (setting [3]), `CSCC[C@H](NC(=O)[C@H](CCC(N)=O)NC(=O)[C@H](CCCCN)NC(=O)[C@H](CCCNC(=N)N)NC(=O)[C@H](Cc1ccc(O)cc1)NC(=O)[C@H](CCCNC(=N)N)NC(=O)[C@H](CO)NC(=O)[C@H](Cc1ccc(O)cc1)NC(=O)[C@H](CO)NC(=O)[C@H](CC(=O)O)NC(=O)[C@@H](NC(=O)[C@@H](N)Cc1ccccc1)[C@@H](C)O)C(=O)N[C@@H](C)C(=O)N[C@H](C(=O)N[C@@H](CCCCN)C(=O)N[C@@H](CCCCN)C(=O)N[C@@H](Cc1ccc(O)cc1)C(=O)N[C@@H](CC(C)C)C(=O)N[C@@H](C)C(=O)N[C@H]1CCC(=O)NCCCC[C@@H](C(=O)N[C@@H](CCCNC(=N)N)C(=O)N[C@@H](Cc2ccc(O)cc2)C(=O)N[C@@H](CCCCN)C(=O)N[C@@H](CCC(N)=O)C(=O)N[C@@H](CCCNC(=N)N)C(=O)N[C@H](C(=O)N[C@@H](CCCCN)C(=O)N[C@@H](CC(N)=O)C(=O)N[C@@H](CCCCN)C(N)=O)C(C)C)NC(=O)CNC(=O)[C@H](CC(C)C)NC(=O)[C@H](C(C)C)NC1=O)C(C)C` [P6-38Lb, (c[E25,K29])P6-38] (H-FTDSYSRYRKQMAVKKYLAEVLGKRYKQRVKNK-NH2; lactam 20-24) registered an IC50 of 219 ± 28 nM.
Still for that read-out and setting: as for `CSCC[C@H](NC(=O)[C@H](CCC(N)=O)NC(=O)[C@H](CCCCN)NC(=O)[C@H](CCCNC(=N)N)NC(=O)[C@H](Cc1ccc(O)cc1)NC(=O)[C@H](CCCNC(=N)N)NC(=O)[C@H](CO)NC(=O)[C@H](Cc1ccc(O)cc1)NC(=O)[C@H](CO)NC(=O)[C@H](CC(=O)O)NC(=O)[C@@H](NC(=O)[C@@H](N)Cc1ccccc1)[C@@H](C)O)C(=O)N[C@@H](C)C(=O)N[C@H](C(=O)N[C@@H](CCCCN)C(=O)N[C@@H](CCCCN)C(=O)N[C@@H](Cc1ccc(O)cc1)C(=O)N[C@@H](CC1CCCCC1)C(=O)N[C@@H](C)C(=O)N[C@H]1CCC(=O)NCCCC[C@@H](C(=O)N[C@@H](CCCNC(=N)N)C(=O)N[C@@H](Cc2ccc(O)cc2)C(=O)N[C@@H](CCCCN)C(=O)N[C@@H](CCC(N)=O)C(=O)N[C@@H](CCCNC(=N)N)C(=O)N[C@H](C(=O)N[C@@H](CCCCN)C(=O)N[C@@H](CC(N)=O)C(=O)N[C@@H](CCCCN)C(N)=O)C(C)C)NC(=O)CNC(=O)[C@H](CC(C)C)NC(=O)[C@H](C(C)C)NC1=O)C(C)C` [P6-38Lbx1, (c[E25,K29], Cha23)P6-38] (H-FTDSYSRYRKQMAVKKY[Cha]AEVLGKRYKQRVKNK-NH2; lactam 20-24), the figure is 61 ± 12 nM.
In the case of FTDSYSRYRKQMAVKKYLAAVL-NH2 [P6-27], the figures for the “P38-induced cAMP elevation blocked to” value in test [2] (P6-27 at 1 μM) and in test [2] (until the highest concentration tested (10 μM)) were 50% and ~ 50%, respectively.
For FTDSYSRYRKQMAVKKYLAAVLG-NH2 [P6-28], the IC50 in test [2] (0.2 nM P38 (EC80), SY5Y_CBS, Figure 11B, read-out: IC50 of P6-38 C-terminal mutants in CBS assay) is above 1000 nM.
For FTDSYSRYRKQMAVKKYLAAVLGKRYK-NH2 [P6-32], the IC50 in test [2] (setting [4]) amounted to 72 ± 17 nM.
On the same count and under the same terms, as for “FTDSYSRYRKQMAVKKYLAAVLGKRYKQRVK-NH2 [P6-36]”, the figure is 90 ± 13 nM.

The values above are taken from doi:10.1101/2025.04.16.649181, “Design of peptide-based PAC1 antagonists combining molecular dynamics simulations and a biologically relevant cell-based assay” (bioRxiv, 2025).
